Source: ChEMBL document CHEMBL5120778, “Jatrophane Diterpenoids with Kv1.3 Ion Channel Inhibitory Effects from Euphorbia helioscopia” (J Nat Prod, 2022)

Experiments:
[1] = target: T1, Potassium voltage-gated channel subfamily A member 3 (Homo sapiens, UniProt P22001); assay: Inhibition of human Kv1.3 expressed in HEK293 cells assessed as inhibition of tetracyclin induced current at 30 uM at holding potential of -80 mV by patch clamp method relative to control; format: cell-based
[2] = test system: HEK293; assay: Cytotoxicity against HEK293 cells assessed as reduction in cell proliferation at 30 uM; format: toxicity, cell-based; settings: human, hek293, 30 µM
[3] = target: T1, Potassium voltage-gated channel subfamily A member 3; assay: Inhibition of human Kv1.3 expressed in HEK293 cells assessed as inhibition of tetracyclin induced current at 1 uM at holding potential of -80 mV by patch clamp method relative to control; format: cell-based
[4] = target: T1, Potassium voltage-gated channel subfamily A member 3; assay: Inhibition of human Kv1.3 expressed in HEK293 cells assessed as inhibition of tetracyclin induced current at holding potential of -80 mV by patch clamp method; format: cell-based

T1 sequence (P22001 whole entry): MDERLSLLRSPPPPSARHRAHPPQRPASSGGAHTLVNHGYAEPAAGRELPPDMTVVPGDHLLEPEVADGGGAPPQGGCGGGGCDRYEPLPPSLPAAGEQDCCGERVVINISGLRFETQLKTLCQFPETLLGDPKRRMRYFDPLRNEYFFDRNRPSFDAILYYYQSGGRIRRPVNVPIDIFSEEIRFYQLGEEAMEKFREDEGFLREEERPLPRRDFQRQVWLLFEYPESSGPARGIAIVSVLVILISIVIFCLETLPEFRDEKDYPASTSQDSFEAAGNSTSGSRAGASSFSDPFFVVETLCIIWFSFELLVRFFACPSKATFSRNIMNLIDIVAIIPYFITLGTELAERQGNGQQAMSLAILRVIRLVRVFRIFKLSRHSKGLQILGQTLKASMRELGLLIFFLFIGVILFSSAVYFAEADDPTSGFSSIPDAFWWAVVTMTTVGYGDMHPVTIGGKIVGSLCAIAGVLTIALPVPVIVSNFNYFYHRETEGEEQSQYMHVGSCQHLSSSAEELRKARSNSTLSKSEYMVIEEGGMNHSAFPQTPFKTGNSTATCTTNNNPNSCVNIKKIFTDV

Question: For `CC(=O)O[C@@H]1C[C@@H](O)/C(C)=C/[C@H]2[C@@H](OC(=O)c3ccccc3)[C@@H](C)C[C@]2(OC(C)=O)C(=O)/C(C)=C/[C@H](O)C1(C)C`, which inhibition [1] is on record?
Answer: Its inhibition is 84.4%.

Question: And the Activity [2]?
Answer: Its Activity is “Non-Toxic”.

Question: And the inhibition [3]?
Answer: Its inhibition is 7.36%.

Question: Which inhibition [1] does the source give for `CC(=O)O[C@@H]1C[C@@H](OC(C)=O)C(C)(C)[C@@H](O)/C=C(\C)C(=O)[C@@]2(OC(C)=O)C[C@H](C)[C@H](OC(=O)c3ccccc3)[C@@H]2/C=C/1C` here?
Answer: The inhibition was 98.6%.

Question: What about the Activity [2] of the same molecule?
Answer: Its Activity is “Non-Toxic”.

Question: What about the IC50 [4] of the same molecule?
Answer: Its IC50 is 0.9 µM.

Question: And the inhibition [3]?
Answer: The inhibition was 57%.

Question: `CC(=O)O[C@@H]1C[C@@H](O)/C(C)=C/[C@H]2[C@@H](OC(=O)c3ccccc3)[C@H](C)C[C@]2(OC(C)=O)C(=O)/C(C)=C/[C@H](O)C1(C)C` was tested. Which inhibition [1] did it give?
Answer: The inhibition was 85.6%.

Question: And the Activity [2]?
Answer: The Activity was “Non-Toxic”.

Question: And the inhibition [3]?
Answer: The inhibition was 6.06%.

Question: With `Fc1ccc([C@@H]2CCNC[C@H]2COc2ccc3c(c2)OCO3)cc1` [PAROXETINE] as the molecule, how does the inhibition [1] read?
Answer: The inhibition was 48.1%.

Question: And the Activity [2]?
Answer: The Activity was “Non-Toxic”.

Question: What about the IC50 [4] of the same molecule?
Answer: The IC50 was 31.9 µM.

Question: How did the inhibition [1] turn out when `CC(=O)O[C@@H]1C[C@@H](OC(C)=O)C(C)(C)/C=C/[C@H](C)[C@H](OC(C)=O)[C@@]2(O)C[C@H](C)[C@H](OC(=O)c3cccc(O)c3)[C@@H]2/C=C/1C` was run?
Answer: The inhibition was 74.4%.

Question: What about the Activity [2] of the same molecule?
Answer: The Activity was “Non-Toxic”.

Question: What about the inhibition [3] of the same molecule?
Answer: Its inhibition is 6.16%.

Question: How did the inhibition [1] turn out when `CC(=O)O[C@@H]1C[C@@H](OC(C)=O)C(C)(C)[C@@H](O)[C@H](O)[C@H](C)[C@H](OC(C)=O)[C@@]2(O)C[C@H](C)[C@H](OC(=O)c3ccccc3)[C@@H]2/C=C/1C` was run?
Answer: Its inhibition is 95.7%.

Question: And the Activity [2]?
Answer: The Activity was “Non-Toxic”.

Question: What about the inhibition [3] of the same molecule?
Answer: Its inhibition is 24.3%.

Question: What does the source list for `CC(=O)O[C@@H]1C[C@@H](OC(C)=O)C(C)(C)[C@H](O)[C@H]2O[C@@]3(C[C@H](C)[C@H](OC(=O)c4ccccc4)[C@@H]3/C=C/1C)[C@@H](OC(C)=O)[C@H]2C`?
Answer: inhibition [1]: 96.2%; Activity [2]: Non-Toxic; inhibition [3]: 21%

Question: With `CC(=O)O[C@@H]1[C@@H](C)/C=C/C(C)(C)[C@H](OC(C)=O)C[C@@H](OC(C)=O)/C(C)=C/[C@H]2[C@@H](OC(=O)c3ccccc3)[C@@H](C)C[C@]12OC(C)=O` as the molecule, how does the inhibition [1] read?
Answer: The inhibition was 90%.

Question: And the Activity [2]?
Answer: Its Activity is “Non-Toxic”.

Question: And the inhibition [3]?
Answer: The inhibition was 8.34%.

Question: `CC(=O)O[C@]12C[C@@H](C)[C@H](OC(=O)c3ccccc3)[C@@H]1/C=C(\C)[C@H](O)CC(=O)C(C)(C)/C=C/[C@@H](C)[C@H]2O` was tested. Which inhibition [1] did it give?
Answer: The inhibition was 93.9%.

Question: And the Activity [2]?
Answer: Its Activity is “Non-Toxic”.

Question: What about the inhibition [3] of the same molecule?
Answer: The inhibition was 13.4%.

Question: How did the inhibition [1] turn out when `CC(=O)O[C@@H]1CC(=O)/C(C)=C/[C@H]2[C@@H](OC(=O)c3ccccc3)[C@@H](C)C[C@]2(O)[C@@H](OC(C)=O)[C@@H](C)/C=C/C1(C)C` was run?
Answer: Its inhibition is 89.4%.

Question: And the Activity [2]?
Answer: Its Activity is “Non-Toxic”.

Question: What about the inhibition [3] of the same molecule?
Answer: Its inhibition is 4.72%.

Question: `CC(=O)O[C@@H]1C[C@@H](OC(C)=O)C(C)(C)/C=C/[C@H](C)[C@@H](O)[C@@]2(OC(C)=O)C[C@@H](C)[C@H](OC(=O)c3ccccc3)[C@@H]2/C=C/1C` was tested. Which inhibition [1] did it give?
Answer: Its inhibition is 97.4%.

Question: And the Activity [2]?
Answer: Its Activity is “Non-Toxic”.

Question: What about the inhibition [3] of the same molecule?
Answer: Its inhibition is 21.1%.

Question: Which results are given for `CC(=O)O[C@@H]1[C@@H](C)/C=C/C(C)(C)C(=O)C[C@@H](OC(C)=O)/C(CO)=C/[C@H]2[C@@H](OC(=O)c3ccccc3)[C@H](C)C[C@]12OC(C)=O`?
Answer: inhibition [1]: 96.9%; Activity [2]: Non-Toxic; inhibition [3]: 5.94%

Question: What does the source list for `CC(=O)O[C@@H]1C[C@@H](OC(C)=O)C(C)(C)[C@H](O)/C=C(\C)[C@H](OC(C)=O)[C@@]2(OC(C)=O)C[C@H](C)[C@H](OC(=O)c3ccccc3)[C@@H]2/C=C/1C`?
Answer: inhibition [1]: 93.7%; Activity [2]: Non-Toxic; IC50 [4]: 0.9 µM; inhibition [3]: 50.4%

Question: With `CC(=O)O[C@@H]1[C@H](C)[C@@H](C=C(C)C)C(=O)C[C@@H](OC(=O)c2cccnc2)/C(C)=C/[C@H]2[C@@H](OC(=O)c3ccccc3)[C@H](C)C[C@]12OC(C)=O` as the molecule, how does the inhibition [1] read?
Answer: The inhibition was 98.7%.

Question: What about the Activity [2] of the same molecule?
Answer: Its Activity is “Non-Toxic”.

Question: What about the IC50 [4] of the same molecule?
Answer: The IC50 was 6.5 µM.

Question: What about the inhibition [3] of the same molecule?
Answer: The inhibition was 30.9%.

Question: What does the source list for `CC(=O)O[C@@H]1[C@H](C)/C=C/C(C)(C)C(=O)C[C@@H](O)/C(C)=C/[C@H]2[C@@H](OC(=O)c3ccccc3)[C@H](C)C[C@]12OC(C)=O`?
Answer: inhibition [1]: 94.6%; Activity [2]: Non-Toxic; inhibition [3]: 2.38%

Question: With `CC(=O)O[C@@H]1CC(=O)C(C)(C)/C=C/[C@@H](C)[C@@H](O)[C@@]2(OC(C)=O)C[C@H](C)[C@H](OC(=O)c3ccccc3)[C@@H]2/C=C/1C` as the molecule, how does the inhibition [1] read?
Answer: The inhibition was 85.4%.

Question: What about the Activity [2] of the same molecule?
Answer: Its Activity is “Non-Toxic”.

Question: And the inhibition [3]?
Answer: Its inhibition is 24.6%.

Question: How did the inhibition [1] turn out when `CC(=O)O[C@]12C[C@H](C)[C@H](OC(=O)c3ccccc3)[C@@H]1/C=C(\C)[C@H](O)CC(=O)C(C)(C)C/C=C(\C)C2=O` was run?
Answer: Its inhibition is 88.7%.

Question: What about the Activity [2] of the same molecule?
Answer: Its Activity is “Non-Toxic”.

Question: And the inhibition [3]?
Answer: Its inhibition is 4.96%.

Question: Which inhibition [1] does the source give for `CC(=O)O[C@@H]1[C@H](C)/C=C/C(C)(C)C(=O)C[C@@H](OC(C)=O)/C(CO)=C/[C@H]2[C@@H](OC(=O)c3ccccc3)[C@H](C)C[C@]12OC(C)=O` here?
Answer: The inhibition was 97.5%.

Question: And the Activity [2]?
Answer: Its Activity is “Non-Toxic”.

Question: And the inhibition [3]?
Answer: Its inhibition is 5.38%.

Question: `CC(=O)O[C@@H]1[C@H](C)/C=C/C(C)(C)C(=O)C[C@@H](OC(=O)c2cccnc2)/C(C)=C/[C@H]2[C@@H](OC(=O)c3ccccc3)[C@H](C)C[C@]12OC(C)=O` was tested. Which inhibition [1] did it give?
Answer: The inhibition was 95.3%.

Question: And the Activity [2]?
Answer: Its Activity is “Non-Toxic”.

Question: What about the inhibition [3] of the same molecule?
Answer: The inhibition was 10.5%.

Question: Which inhibition [1] does the source give for `CC(=O)O[C@]12C[C@@H](C)[C@H](OC(=O)c3ccccc3)[C@@H]1/C=C(\C)[C@H](O)CC(=O)C(C)(C)[C@@H](O)/C=C(\C)C2=O` here?
Answer: Its inhibition is 90.7%.

Question: What about the Activity [2] of the same molecule?
Answer: The Activity was “Non-Toxic”.

Question: What about the inhibition [3] of the same molecule?
Answer: Its inhibition is 5.67%.

Question: `CC(=O)O[C@@H]1C[C@@H](OC(C)=O)C(C)(C)/C=C/[C@H](C)[C@H](OC(C)=O)[C@@]2(O)C[C@H](C)[C@H](OC(=O)c3ccccc3)[C@@H]2/C=C/1C` [EUPHORNIN] was tested. Which inhibition [1] did it give?
Answer: Its inhibition is 88.7%.

Question: And the Activity [2]?
Answer: Its Activity is “Non-Toxic”.

Question: What about the inhibition [3] of the same molecule?
Answer: Its inhibition is 8.87%.
